Data from patent US20250304551A1 (SHANGHAI APEIRON THERAPEUTICS COMPANY LIMITED, priority 2022, published 2025).

How the values were obtained:
[1] = target: T1, Human KIF18A (amino acid sequence 1-417) (Homo sapiens, UniProt Q8NI77); test: Enzyme activity detection experiment (ADP-Glo, KIF18A with tubulin and ATP); format: biochemical; conditions: tubulin 60 μg/mL, ATP 25 μM, KIF18A protein 2.5 nM, 120 minutes at ambient temperature, ADP-Glo chemiluminescence
T1 construct: purchased Viva Biotech (Shanghai) Ltd
T1 sequence (Q8NI77 1-417): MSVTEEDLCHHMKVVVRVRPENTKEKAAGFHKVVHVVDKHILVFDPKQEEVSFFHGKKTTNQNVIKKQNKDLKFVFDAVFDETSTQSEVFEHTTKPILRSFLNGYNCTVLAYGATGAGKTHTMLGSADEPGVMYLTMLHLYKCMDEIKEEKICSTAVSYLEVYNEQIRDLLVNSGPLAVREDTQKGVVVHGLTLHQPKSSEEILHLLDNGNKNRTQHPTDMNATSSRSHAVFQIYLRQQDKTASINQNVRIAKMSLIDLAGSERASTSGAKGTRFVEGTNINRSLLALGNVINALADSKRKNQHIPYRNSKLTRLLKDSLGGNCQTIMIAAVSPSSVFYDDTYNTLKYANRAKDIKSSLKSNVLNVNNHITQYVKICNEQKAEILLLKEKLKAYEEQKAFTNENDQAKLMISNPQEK
T1 sequence (Q2XVP4 whole entry partner): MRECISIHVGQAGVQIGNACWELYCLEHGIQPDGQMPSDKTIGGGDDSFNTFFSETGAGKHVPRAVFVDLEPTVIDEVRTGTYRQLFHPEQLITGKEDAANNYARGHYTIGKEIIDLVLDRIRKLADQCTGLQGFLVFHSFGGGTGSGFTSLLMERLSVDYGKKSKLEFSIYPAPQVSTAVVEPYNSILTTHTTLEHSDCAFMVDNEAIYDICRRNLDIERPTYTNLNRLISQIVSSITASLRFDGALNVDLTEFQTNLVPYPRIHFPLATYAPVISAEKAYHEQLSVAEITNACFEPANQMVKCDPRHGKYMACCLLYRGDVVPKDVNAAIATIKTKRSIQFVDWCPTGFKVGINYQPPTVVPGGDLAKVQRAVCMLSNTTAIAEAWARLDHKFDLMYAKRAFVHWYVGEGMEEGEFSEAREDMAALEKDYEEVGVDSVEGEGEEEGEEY
T1 sequence (P02554 whole entry partner): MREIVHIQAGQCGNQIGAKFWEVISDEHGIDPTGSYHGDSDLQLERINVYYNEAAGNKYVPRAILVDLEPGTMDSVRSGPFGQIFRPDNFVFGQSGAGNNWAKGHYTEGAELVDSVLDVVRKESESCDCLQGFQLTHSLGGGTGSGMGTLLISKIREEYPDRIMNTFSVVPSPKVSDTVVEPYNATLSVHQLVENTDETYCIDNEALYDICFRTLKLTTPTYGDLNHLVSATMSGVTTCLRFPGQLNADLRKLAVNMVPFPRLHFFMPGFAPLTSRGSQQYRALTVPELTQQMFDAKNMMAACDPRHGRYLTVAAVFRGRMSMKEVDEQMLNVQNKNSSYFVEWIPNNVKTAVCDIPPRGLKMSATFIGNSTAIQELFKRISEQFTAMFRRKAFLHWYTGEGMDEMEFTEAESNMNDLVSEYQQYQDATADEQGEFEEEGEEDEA
Procedure: Materials: Human KIF18A (amino acid sequence 1-417) was obtained from Viva Biotech (Shanghai) Ltd., and the ADP-Glo™ protein kinase kit was acquired from Promega, USA. Tubulin was sourced from Cytoskeleton, USA, while a 384-well assay plate and the Envision multifunctional microplate reader were obtained from PerkinElmer, USA.
Enzyme activity detection: The compound powder in DMSO was firstly dissolved to prepare a 10 mM stock solution. Next, gradient dilutions were prepared in the microplate to achieve final concentrations of […]. Sequentially, 2.5 μL of tubulin (60 μg/mL), the compound, ATP (25 μM), and KIF18A protein (2.5 nM) were added to each well, and the reaction was incubated at ambient temperature for 120 minutes. After the reaction, 10 μL of ADP-Glo™ reagent was added to each well and incubated at ambient temperature for 30 minutes. Subsequently, 20 μL of detection reagent was added to each well and incubated for an additional 30 minutes in the dark. Finally, chemiluminescence detection was performed using the PerkinElmer Envision multifunctional microplate reader.

[2] = system: OVCAR3 cells; test: Cell proliferation activity test, OVCAR3 (CyQUANT Direct); format: cell-based; conditions: Homo sapiens, OVCAR-3, 72 h, 3 days incubation, CyQUANT fluorescence detection, read-out: OVCAR-3 Cell Viability_IC50_nM
Procedure: Materials and Cells: OVCAR3 cells were purchased from Nanjing Cobioer Biosciences Co., Ltd. RPMI-1640 medium, fetal bovine serum, and the CyQUANT Direct Cell Proliferation Assay kit were purchased from Thermo Fisher Scientific, USA; 96-well cell culture plates were sourced from Corning, USA.
Cell Culture: Culture OVCAR3 cells with RPMI-1640 medium containing […] and incubate them in a […] incubator at 37° C. Only cells in the logarithmic growth phase can be used for the test.
Inoculate OVCAR3 cells into a 96-well cell culture plate at 90 μL per well and incubate overnight in a […] incubator at 37° C. Dissolve the compound powder in DMSO to prepare a stock solution of 10 mM. Then perform gradient dilution for the compounds in the microplate to achieve a final concentration of 0-10 μM. Add 10 μL of cell culture medium containing compounds to each well to make the final DMSO content 0.20%. Incubate the cell plates in a […] incubator at 37° C. for 3 days. Add 100 μL of CyQUANT detection reagent to each well, react at 37° C. for 60 min, and perform fluorescence detection using the PerkinElmer Envision.

[3] = system: HT29 cells; test: CyQuant cell proliferation activity test, HT29; format: cell-based; conditions: Homo sapiens, HT-29, 72 h, HT29 2000 cells per well, 3 days incubation, initial concentration 3000 nM, IC50 by XLFIT, read-out: HT-29 Cell Viability_IC50_nM
Procedure: Materials and Cells: HT29 cells were purchased from Nanjing Cobioer Biosciences Co., Ltd.; RPM-1640 medium, fetal bovine serum, Trypsin-EDTA (0.25%), DMSO, 96-well plates, and CyQuant reagents were purchased from ThermoFisher (USA).
Cell Culture: Culture HT29 cells with RPMI-1640 containing 10% fetal bovine serum under the condition of 37° C. and 5% CO2. Only cells in the logarithmic growth phase can be used for the test.
Cell Proliferation Activity Test: Use the CyQuant reagent to detect the proliferation inhibitory activity of compounds on HT29 cells. Adjust the cell density and inoculate 100 μL per well into the 96-well plate (HT29 at 2000 cells per well), then incubate overnight under the condition of 37° C. and […]. Add compounds of various target concentrations (initial concentration of 3000 nM, 3-fold dilution, 9 concentration gradients), and make the DMSO content 0.20%. Incubate the cell plates at 37° C. and 5% CO2 for 3 days. Incubate with CyQuant reagent for 1 h, read the plate by Envision, and calculate IC50 using XLFIT.

Structure (SMILES)	IC50 [1]	IC50 [2]	IC50 [3]
O=S(=O)(CCO)Nc1ccc(C=C(F)c2cc(N3CCC(F)(F)CC3)c3ncccc3c2)c(N2CCC3(CC2)CC3)c1 [Example 1, N-(4-(2-(8-(4,4-difluoropiperidin-1-yl)quinolin-6-yl)-2-fluorovinyl)-3-(6-azaspiro[2.5]octan-6-yl)phenyl)-2-hydroxyethane-1-sulfonamide]	> 3000 nM	474 nM	629 nM
O=S(=O)(CCO)Nc1ccc(/C(F)=C/c2cc(N3CCC(F)(F)CC3)c3ncccc3c2)c(N2CCC3(CC2)CC3)c1 [Example 2, (Z)-N-(4-(2-(8-(4,4-difluoropiperidin-1-yl)quinolin-6-yl)-1-fluorovinyl)-3-(6-azasppiro[2.5]octan-6-yl)phenyl)-2-hydroxyethane-1-sulfonamide]	> 3000 nM	766 nM	811 nM
O=S(=O)(CCO)Nc1ccc(/C(F)=C\c2cc(N3CCC(F)(F)CC3)c3ncccc3c2)c(N2CCC3(CC2)CC3)c1 [Example 3, (E)-N-(4-(2-(8-(4,4-difluoropiperidin-1-yl)quinolin-6-yl)-1-fluorovinyl)-3-(6-azasppiro[2.5]octan-6-yl)phenyl)-2-hydroxyethane-1-sulfonamide]	852 nM	181 nM	210 nM
Cc1cc(-c2nnc(-c3ccc(NS(=O)(=O)CCO)cc3N3CCC4(CC3)CC4)[nH]2)nc(N2CCC(F)(F)CC2)n1 [Example 4, N-(4-(5-(2-(4,4-difluoropiperidin-1-yl)-6-methylpyrimidin-4-yl)-4H-1,2,4-triazol-3-yl)-3-(6-azaspiro[2.5]octan-6-yl)phenyl)-2-hydroxyethane-1-sulfonamide]	38 nM	62 nM	77 nM
Cc1cc(-c2noc(-c3ccc(NS(=O)(=O)CCO)cc3N3CCC4(CC3)CC4)n2)nc(N2CCC(F)(F)CC2)n1 [Example 7]	102 nM	1180 nM	> 3000 nM
Cc1cc(-c2nnn(-c3ccc(NS(=O)(=O)CCO)cc3N3CCC4(CC3)CC4)n2)nc(N2CCC(F)(F)CC2)n1 [Example 8, N-(4-(5-(2-(4,4-difluoropiperidin-1-yl)-6-methylpyrimidin-4-yl)-2H-tetrazol-2-yl)-3-(6-azaspiro[2.5]octan-6-yl)phenyl)-2-hydroxyethane-1-sulfonamide]	775 nM	496 nM	250 nM
Cc1cc(-n2nnc(-c3ccc(NS(=O)(=O)CCO)cc3N3CCC4(CC3)CC4)n2)cc(N2CCC(F)(F)CC2)n1 [Example 9, N-(4-(2-(2-(4,4-difluoropiperidin-1-yl)-6-methylpyridin-4-yl)-2H-tetrazol-5-yl)-3-(6-azaspiro[2.5]octan-6-yl)phenyl)-2-hydroxyethane-1-sulfonamide]	312 nM	107 nM	165 nM
Cc1cc(-c2cn(-c3ccc(NS(=O)(=O)CCO)cc3N3CCC4(CC3)CC4)cn2)nc(N2CCC(F)(F)CC2)n1 [Example 10, N-(4-(4-(2-(4,4-difluoropiperidin-1-yl)-6-methylpyrimidin-4-yl)-1H-imidazol-1-yl)-3-(6-azaspiro[2.5]octan-6-yl)phenyl)-2-hydroxyethane-1-sulfonamide]	251 nM	46 nM	56 nM
COc1cc(-c2cn(-c3ccc(NS(=O)(=O)CCO)cc3N3CCC4(CC3)CC4)cn2)nc(N2CCC(F)(F)CC2)n1 [Example 11, N-(4-(4-(2-(4,4-difluoropiperidin-1-yl)-6-methoxypyrimidin-4-yl)-1H-imidazol-1-yl)-3-(6-azaspiro[2.5]octan-6-yl)phenyl)-2-hydroxyethane-1-sulfonamide]	252 nM	164 nM	319 nM
Cc1cc(-n2cnc(-c3ccc(NS(=O)(=O)CCO)cc3N3CCC4(CC3)CC4)c2)nc(N2CCC(F)(F)CC2)n1 [Example 12, N-(4-(1-(2-(4,4-difluoropiperidin-1-yl)-6-methylpyrimidin-4-yl)-1H-imidazol-4-yl)-3-(6-azaspiro[2.5]octan-6-yl)phenyl)-2-hydroxyethane-1-sulfonamide]	> 3000 nM	464 nM	568 nM
Cc1cc(-n2cnc(-c3ccc(NS(=O)(=O)CCO)cc3N3CCC4(CC3)CC4)c2)cc(N2CCC(F)(F)CC2)n1 [Example 13, N-(4-(1-(2-(4,4-difluoropiperidin-1-yl)-6-methylpyridin-4-yl)-1H-imidazol-4-yl)-3-(6-azaspiro[2.5]octan-6-yl)phenyl)-2-hydroxyethane-1-sulfonamide]	1280 nM	472 nM	444 nM
Cc1cc(-c2nnc(-c3ccc(NS(=O)(=O)CCO)cc3N3CCC4(CC3)CC4)s2)nc(N2CCC(F)(F)CC2)n1 [Example 14, N-(4-(5-(2-(4,4-difluoropiperidin-1-yl)-6-methylpyrimidin-4-yl)-1,3,4-thiadiazol-2-yl)-3-(6-azaspiro[2.5]oct-6-yl)phenyl)-2-hydroxyethane-1-sulfonamide]	158 nM	145 nM	88 nM
Cc1cc(-c2nnc(-c3ccc(NS(=O)(=O)CCO)cc3N3CCC4(CC3)CC4)o2)nc(N2CCC(F)(F)CC2)n1 [Example 15, N-(4-(5-(2-(4,4-difluoropiperidin-1-yl)-6-methylpyrimidin-4-yl)-1,3,4-oxadiazol-2-yl)-3-(6-azaspiro[2.5]octan-6-yl)phenyl)-2-hydroxyethane-1-sulfonamide]	60 nM	61 nM	60 nM
Cc1cc(-c2nnc(-c3ccc(NS(=O)(=O)CCO)cc3N3CCC4(CC3)CC4)o2)nc(NC(C)(C)CO)n1 [Example 16, 2-hydroxy-N-(4-(5-(2-((1-hydroxy-2-methylpropan-2-yl)amino)-6-methylpyrimidin-4-yl)-1,3,4-oxadiazol-2-yl)-3-(6-azaspiro[2.5]octan-6-yl)phenyl)ethane-1-sulfon amide]	243 nM	717 nM	1520 nM
Cc1cc(-c2nnc(-c3ccc(NS(=O)(=O)CCO)cc3N3CCC4(CC3)CC4)o2)nc(N2CCCC(O)C2)n1 (stereo not drawn) [Example 17, 2-hydroxy-N-(4-(5-(2-(3-hydroxypiperidin-1-yl)-6-methylpyrimidin-4-yl)-1,3,4-oxadiazol-2-yl)-3-(6-azaspiro[2.5]octan-6-yl)phenyl)ethane-1-sulfonamide]	46 nM	74 nM	337 nM
Cc1cc(-c2nnc(-c3ccc(NS(=O)(=O)CCO)cc3N3CCC4(CC3)CC4)o2)nc(N2CCO[C@H](C)C2)n1 [Example 18, (R)-2-hydroxy-N-(4-(5-(6-methyl-2-(2-methylmorpholino)pyrimidin-4-yl)-1,3,4-oxadiazol-2-yl)-3-(6-azaspiro[2.5]octan-6-yl)phenyl)ethane-1-sulfonamide]	52 nM	30 nM	26 nM
Cc1cc(-c2nnc(-c3ccc(NS(=O)(=O)CCO)cc3N3CCC4(CC3)CC4)o2)nc(N2CCC(C)(O)CC2)n1 [Example 19, 2-hydroxy-N-(4-(5-(2-(4-hydroxy-4-methylpiperidin-1-yl)-6-methylpyrimidin-4-yl)-1,3,4-oxadiazol-2-yl)-3-(6-azaspiro[2.5]octan-6-yl)phenyl)ethane-1-sulfonamide]	630 nM	1400 nM	> 3000 nM
